According to ChEMBL document CHEMBL4177694, “Discovery of the first low-shift positive allosteric modulators for the muscarinic M1 receptor” (Bioorg Med Chem Lett, 2017):
Activity calls are given as the source filed them. No cut-off for these calls is given here.

What was measured:
[1] = molecular target: T1, Muscarinic acetylcholine receptor M1 (Homo sapiens) (UniProt P11229); assay: (§1) Positive allosteric modulation of human wild type M1 receptor assessed as increase in acetylcholine-induced calcium flux by FLIPR assay; assay type: functional
T1 sequence (whole entry): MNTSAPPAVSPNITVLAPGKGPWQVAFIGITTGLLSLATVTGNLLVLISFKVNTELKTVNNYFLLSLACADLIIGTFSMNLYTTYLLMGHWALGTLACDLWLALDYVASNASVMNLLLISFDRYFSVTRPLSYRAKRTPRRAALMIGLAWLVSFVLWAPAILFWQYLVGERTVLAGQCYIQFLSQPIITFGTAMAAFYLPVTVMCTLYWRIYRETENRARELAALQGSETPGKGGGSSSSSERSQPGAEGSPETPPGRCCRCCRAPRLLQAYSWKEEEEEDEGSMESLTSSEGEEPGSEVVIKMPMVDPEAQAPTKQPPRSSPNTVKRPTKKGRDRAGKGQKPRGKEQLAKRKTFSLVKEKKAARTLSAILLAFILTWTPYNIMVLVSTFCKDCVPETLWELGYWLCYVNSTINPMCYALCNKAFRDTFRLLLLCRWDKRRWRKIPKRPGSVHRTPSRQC

[2] = molecular target: T1, Muscarinic acetylcholine receptor M1 (Homo sapiens); assay: Positive allosteric modulation of human wild type M1 receptor assessed as increase in acetylcholine-induced calcium flux by FLIPR assay relative to acetylcholine; assay type: functional
[3] = molecular target: T2, Muscarinic acetylcholine receptor M1 (Homo sapiens, UniProt P11229); assay: as §1; assay type: functional
T2 sequence (P11229 whole entry): T1 sequence (whole entry)

[4] = Displacement of [3H]-Ro 15-1788 from rat brain synaptosomal membranes GABA receptor after 90 mins
[5] = molecular target: Gamma-aminobutyric acid receptor subunit alpha-2/beta-3/gamma-2 (Rattus norvegicus, UniProt P18508+P23576+P63079); assay: […] rat GABA-A receptor alpha2beta3gamma2 expressed in HEK293 cells by electrophysiology assay; assay type: cell-based
[6] = molecular target: Gamma-aminobutyric acid receptor subunit alpha-3/beta-3/gamma-2 (Rattus norvegicus, UniProt P18508+P20236+P63079); assay: […] rat GABA-A receptor alpha3beta3gamma2 expressed in HEK293 cells by electrophysiology assay; assay type: cell-based
[7] = molecular target: GABA-A receptor; alpha-2/beta-3/gamma-2 (Homo sapiens, UniProt P18507+P28472+P47869); assay: […] human GABA-A receptor alpha2beta3gamma2 expressed in HEK293 cells by electrophysiology assay; assay type: cell-based
[8] = molecular target: GABA-A receptor; alpha-5/beta-3/gamma-2 (Homo sapiens, UniProt P18507+P28472+P31644); assay: […] human GABA-A receptor alpha5beta3gamma2 expressed in HEK293 cells by electrophysiology assay; assay type: cell-based
[9] = molecular target: GABA-A receptor; alpha-1/beta-2/gamma-2 (Homo sapiens, UniProt P14867+P18507+P47870); assay: […] human GABA-A receptor alpha1beta2gamma2 expressed in HEK293 cells by electrophysiology assay; assay type: cell-based
[10] = molecular target: GABA A receptor alpha-5/beta-3/gamma-2 (Rattus norvegicus, UniProt P18508+P19969+P63079); assay: […] rat GABA-A receptor alpha5beta3gamma2 expressed in HEK293 cells by electrophysiology assay; assay type: cell-based
[11] = molecular target: GABA-A receptor; alpha-3/beta-3/gamma-2 (Homo sapiens, UniProt P18507+P28472+P34903); assay: […] human GABA-A receptor alpha3beta3gamma2 expressed in HEK293 cells by electrophysiology assay; assay type: cell-based
[12] = molecular target: GABA-A receptor; alpha-1/beta-2/gamma-2 (Rattus norvegicus, UniProt P18508+P62813+P63138); assay: […] rat GABA-A receptor alpha1beta2gamma2 expressed in HEK293 cells by electrophysiology assay; assay type: cell-based
[13] = Drug metabolism in rat microsomes assessed as amide formation; assay type: ADME, Microsome
[14] = molecular target: Cytochrome P450 3A4 (Homo sapiens, UniProt P08684); assay: Inhibition of CYP3A4 (unknown origin); assay type: ADME
[15] = Stability in human microsomes; assay type: ADME, Microsome
[16] = Activity at P-gp (unknown origin); assay type: ADME; details: human
[17] = Stability in mouse microsomes; assay type: ADME, Microsome

Gamma-aminobutyric acid receptor subunit alpha-2/beta-3/gamma-2, sequence (P18508 whole entry): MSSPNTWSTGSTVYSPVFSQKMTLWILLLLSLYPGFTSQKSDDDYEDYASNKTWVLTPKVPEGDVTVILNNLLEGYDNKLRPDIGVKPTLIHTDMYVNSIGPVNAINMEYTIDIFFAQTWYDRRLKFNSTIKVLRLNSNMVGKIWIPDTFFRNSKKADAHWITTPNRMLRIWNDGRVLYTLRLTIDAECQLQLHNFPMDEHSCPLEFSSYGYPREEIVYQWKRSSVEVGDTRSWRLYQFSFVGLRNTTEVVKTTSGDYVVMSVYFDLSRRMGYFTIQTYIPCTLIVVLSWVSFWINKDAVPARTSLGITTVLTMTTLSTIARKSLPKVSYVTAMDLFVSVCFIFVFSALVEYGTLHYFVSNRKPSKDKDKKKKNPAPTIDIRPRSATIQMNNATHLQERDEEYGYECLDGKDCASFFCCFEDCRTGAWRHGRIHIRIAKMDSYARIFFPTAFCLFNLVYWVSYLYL
Gamma-aminobutyric acid receptor subunit alpha-2/beta-3/gamma-2, sequence (P23576 whole entry): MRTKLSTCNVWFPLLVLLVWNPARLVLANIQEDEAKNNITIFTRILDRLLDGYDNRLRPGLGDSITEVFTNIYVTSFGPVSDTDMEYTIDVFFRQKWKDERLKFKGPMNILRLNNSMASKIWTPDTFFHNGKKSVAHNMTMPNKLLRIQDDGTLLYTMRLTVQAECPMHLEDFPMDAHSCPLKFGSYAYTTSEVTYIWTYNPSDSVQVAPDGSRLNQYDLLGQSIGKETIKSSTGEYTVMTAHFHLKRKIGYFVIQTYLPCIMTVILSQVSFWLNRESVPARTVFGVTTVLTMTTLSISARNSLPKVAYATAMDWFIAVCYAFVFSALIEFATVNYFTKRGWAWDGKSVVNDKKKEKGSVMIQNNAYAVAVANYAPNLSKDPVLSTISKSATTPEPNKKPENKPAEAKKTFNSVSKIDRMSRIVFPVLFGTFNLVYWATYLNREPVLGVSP
Gamma-aminobutyric acid receptor subunit alpha-2/beta-3/gamma-2, sequence (P63079 whole entry): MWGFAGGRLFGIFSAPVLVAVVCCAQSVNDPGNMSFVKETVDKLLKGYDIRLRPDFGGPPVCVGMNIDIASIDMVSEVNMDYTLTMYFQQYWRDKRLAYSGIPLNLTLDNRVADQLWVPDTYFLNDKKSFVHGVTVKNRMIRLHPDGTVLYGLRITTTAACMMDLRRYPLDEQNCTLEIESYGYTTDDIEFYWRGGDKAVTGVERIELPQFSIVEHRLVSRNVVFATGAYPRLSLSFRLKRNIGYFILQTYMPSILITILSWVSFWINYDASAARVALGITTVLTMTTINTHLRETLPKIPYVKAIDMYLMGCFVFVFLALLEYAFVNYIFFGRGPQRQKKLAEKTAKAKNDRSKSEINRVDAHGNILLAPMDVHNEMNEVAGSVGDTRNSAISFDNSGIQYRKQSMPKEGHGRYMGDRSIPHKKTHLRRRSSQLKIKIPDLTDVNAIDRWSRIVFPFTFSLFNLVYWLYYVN
GABA A receptor alpha-5/beta-3/gamma-2, sequence (P18508 whole entry): as the sequence (P18508 whole entry) above
GABA A receptor alpha-5/beta-3/gamma-2, sequence (P19969 whole entry): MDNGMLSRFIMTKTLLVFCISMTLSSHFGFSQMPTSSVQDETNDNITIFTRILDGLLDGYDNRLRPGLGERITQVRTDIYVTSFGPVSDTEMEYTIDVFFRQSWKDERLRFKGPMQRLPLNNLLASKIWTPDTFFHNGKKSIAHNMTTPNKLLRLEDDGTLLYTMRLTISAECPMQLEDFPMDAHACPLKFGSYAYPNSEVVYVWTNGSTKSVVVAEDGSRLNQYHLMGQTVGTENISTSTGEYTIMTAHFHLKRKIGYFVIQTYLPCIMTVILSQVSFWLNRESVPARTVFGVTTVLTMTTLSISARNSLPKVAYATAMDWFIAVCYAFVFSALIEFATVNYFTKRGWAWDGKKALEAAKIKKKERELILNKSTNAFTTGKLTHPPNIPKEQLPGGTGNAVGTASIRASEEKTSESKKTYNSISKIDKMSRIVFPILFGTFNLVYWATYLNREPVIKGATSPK
GABA A receptor alpha-5/beta-3/gamma-2, sequence (P63079 whole entry): as the sequence (P63079 whole entry) above
Gamma-aminobutyric acid receptor subunit alpha-3/beta-3/gamma-2, sequence (P18508 whole entry): as the sequence (P18508 whole entry) above
Gamma-aminobutyric acid receptor subunit alpha-3/beta-3/gamma-2, sequence (P20236 whole entry): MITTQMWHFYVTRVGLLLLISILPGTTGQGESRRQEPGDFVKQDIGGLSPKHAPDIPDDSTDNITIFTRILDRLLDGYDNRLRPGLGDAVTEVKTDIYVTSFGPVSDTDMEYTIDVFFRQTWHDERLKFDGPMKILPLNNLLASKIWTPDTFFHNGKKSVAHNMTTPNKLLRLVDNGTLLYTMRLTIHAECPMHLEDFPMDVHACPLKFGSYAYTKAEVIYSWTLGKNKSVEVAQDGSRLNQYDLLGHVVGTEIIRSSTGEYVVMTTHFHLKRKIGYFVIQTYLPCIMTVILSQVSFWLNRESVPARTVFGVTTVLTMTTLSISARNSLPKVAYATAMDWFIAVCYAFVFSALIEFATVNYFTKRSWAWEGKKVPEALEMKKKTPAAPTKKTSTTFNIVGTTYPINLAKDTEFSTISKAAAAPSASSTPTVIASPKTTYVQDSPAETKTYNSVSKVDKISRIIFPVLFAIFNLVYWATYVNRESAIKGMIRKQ
Gamma-aminobutyric acid receptor subunit alpha-3/beta-3/gamma-2, sequence (P63079 whole entry): as the sequence (P63079 whole entry) above
Cytochrome P450 3A4, sequence (P08684 whole entry): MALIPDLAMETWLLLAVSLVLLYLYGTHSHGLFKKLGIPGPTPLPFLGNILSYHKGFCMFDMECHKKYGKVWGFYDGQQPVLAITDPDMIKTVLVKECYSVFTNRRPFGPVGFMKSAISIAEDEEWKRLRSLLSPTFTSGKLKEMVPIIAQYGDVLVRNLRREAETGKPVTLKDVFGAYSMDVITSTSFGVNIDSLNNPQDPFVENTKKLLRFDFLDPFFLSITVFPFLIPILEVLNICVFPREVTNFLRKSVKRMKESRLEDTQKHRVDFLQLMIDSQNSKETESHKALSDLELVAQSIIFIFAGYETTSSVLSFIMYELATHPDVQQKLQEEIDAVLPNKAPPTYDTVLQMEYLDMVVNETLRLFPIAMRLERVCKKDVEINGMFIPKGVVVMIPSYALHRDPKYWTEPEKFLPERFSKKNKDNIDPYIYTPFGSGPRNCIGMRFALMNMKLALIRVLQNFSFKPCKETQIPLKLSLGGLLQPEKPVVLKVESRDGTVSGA

Compound | Emax [2] | EC50 [3] | further results
CNC1=Nc2ccc(Cl)cc2C(c2ccccc2)=N[C@H]1C(C)C | – | – | Activity [1]: inactive
Cc1ccc2c(c1)C(c1ccccc1)=NC(C(C)C)C(=S)N2 (stereo not given) | 129% | 62 nM | –
CC(C)[C@H]1N=C(c2ccccc2F)c2cc(Cl)ccc2NC1=S | 119% | 420 nM | –
CCC1CN(c2ccccc2)c2cc(Cl)ccc2NC1=S (stereo not given) | 76% | 50 nM | –
S=C1Nc2ccc(Cl)cc2C(c2ccccc2)=N[C@H]1CC1CC1 | 108% | 251 nM | –
CC(C)C[C@@H]1N=C(c2ccccc2Cl)c2cc(Cl)ccc2NC1=S | – | > 10000 nM | –
S=C1CN=C(c2ccccc2)c2ccccc2N1 | – | > 10000 nM | –
S=C1CC(c2ccccc2)=Nc2cc(Cl)ccc2N1 | – | > 10000 nM | –
CC(C)[C@@H]1N=C(c2ccccn2)c2cc(Cl)ccc2NC1=S | 103% | 289 nM | –
Fc1ccccc1C1=NCC(=S)Nc2ccccc21 | – | > 10000 nM | –
Fc1ccccc1C1=N[C@@H](C2CC2)C(=S)Nc2ccc(Cl)cc21 | 79% | 165 nM | –
CC1N=C(c2ccccc2)c2ccccc2NC1=S (racemic) | 88% | 552 nM | EC50 [4]: 0.061 µM
CC(C)[C@@H]1N=C(c2ccccc2)c2cc(Cl)ccc2N(C)C1=S | – | > 10000 nM | EC50 [4]: 73 µM
CCC1N=C(c2ccccc2)c2cc(N)ccc2NC1=S (stereo not given) | – | > 10000 nM | –
CN1C(=S)CN=C(c2ccccc2)c2cc(Cl)ccc21 [SULAZEPAM] | – | > 10000 nM | –
CCC[C@]1(C)N=C(c2ccccc2)c2cc(Cl)ccc2NC1=S | – | 104 nM | –
CC(C)[C@@H]1N=C(N2CCCCC2)c2cc(Cl)ccc2NC1=S | – | > 10000 nM | –
CCOC1N=C(c2ccccc2)c2cc(Cl)ccc2NC1=S (racemic) | – | > 10000 nM | –
CC(C)[C@@H]1N=C(c2ccccc2)c2cc(Cl)ccc2NC1=S | 102% | 70 nM | EC50 [5]: > 24 µM; EC50 [6]: > 24 µM; EC50 [7]: > 24 µM; EC50 [8]: > 24 µM; EC50 [9]: > 24 µM; EC50 [10]: > 24 µM; EC50 [11]: > 24 µM; EC50 [12]: > 24 µM
CCC[C@@H]1N=C(c2ccccc2)c2cc(Cl)ccc2NC1=S | 129% | 238 nM | –
FC(F)(F)c1ccc2c(c1)C(c1ccccc1)=NCC(=S)N2 | 92% | 516 nM | –
S=C1Cc2ccccc2-c2cc(Cl)ccc2N1 | – | > 10000 nM | –

Compound | Emax [2] | EC50 [3] | further results
FC(F)(F)C[C@@H]1N=C(c2ccccc2)c2cc(Cl)ccc2NC1=S | 74% | 311 nM | –
CC(C)[C@@H]1N=C(c2ccccc2)c2cc(C(F)(F)F)ccc2NC1=S | 72% | 71 nM | Drug metabolism [13]: Metabolite_Detected; inhibition (INH) [14]: Not Active; Stability [15]: Stable; Activity [16]: Not Active; Stability [17]: Stable
CC(C)[C@@H]1N=C(c2ccccc2)c2cc(-c3ccccc3)ccc2NC1=S | 108% | 1470 nM | –
CC(C)[C@@H]1N=C(c2ccccc2)c2cc(OC(F)(F)F)ccc2NC1=S | 127% | 232 nM | –
CC(=O)c1ccc2c(c1)C(c1ccccc1)=NC(C)C(=S)N2 (stereo not given) | – | > 10000 nM | –
COC(C)C1N=C(c2ccccc2)c2cc(Cl)ccc2NC1=S (racemic) | 98% | 354 nM | –
CC(C)[C@@H]1N=C(C2CCCCC2)c2cc(Cl)ccc2NC1=S | 75% | 414 nM | –
CC(C)[C@@H]1N=C(c2cccnc2)c2cc(Cl)ccc2NC1=S | 112% | 275 nM | –
CC(C)[C@H]1N=C(c2ccccc2)c2cc(Cl)ccc2NC1=S | 86% | 521 nM | EC50 [4]: 267 µM
O=[N+]([O-])c1ccc2c(c1)C(c1ccccc1)=NCC(=S)N2 | 40% | 4480 nM | –
CC(C)(O)C1N=C(c2ccccc2)c2cc(Cl)ccc2NC1=S (racemic) | 113% | 1850 nM | –
Fc1ccccc1C1=NCC(=S)Nc2ccc(Cl)cc21 | 95% | 317 nM | –
Cc1ccc2c(c1)C(c1ccccc1)=NCC(=S)N2 | 91% | 3680 nM | –
Fc1ccccc1C1=N[C@@H](c2ccccc2)C(=S)Nc2ccc(Cl)cc21 | 75% | 1470 nM | –
CC(C)C[C@@H]1N=C(c2ccccc2)c2cc(Cl)ccc2NC1=S | 107% | 317 nM | –
C[C@@H]1N=C(c2ccccc2)c2ccccc2NC1=S | – | – | EC50 [4]: 68 µM
COc1ccc2c(c1)C(c1ccccc1)=N[C@@H](C(C)C)C(=S)N2 | 105% | 559 nM | –
CCCC1=N[C@@H](C(C)C)C(=S)Nc2ccc(Cl)cc21 | – | > 10000 nM | –
S=C1Nc2ccc(Cl)cc2C(c2ccccc2)=NC1n1ccnc1 (racemic) | – | > 10000 nM | –
CC(C)[C@@H]1N=C(c2ccccc2)c2cc(Cl)ccc2NC1=O | 90% | 777 nM | EC50 [4]: 57 µM
CC(C)[C@@H]1N=C(c2cccc(Cl)c2)c2cc(Cl)ccc2NC1=S | 112% | 172 nM | –
C[C@@H]1N=C(c2ccccc2)c2cc(Cl)ccc2NC1=S | 67% | 103 nM | –

Compound | Emax [2] | EC50 [3] | further results
Fc1ccccc1C1=NCC(=S)Nc2ccc(I)cc21 | 63% | 2150 nM | –
CC(C)[C@@H]1N=C(c2ccc(C(F)(F)F)cc2)c2cc(Cl)ccc2NC1=S | – | > 10000 nM | –
Fc1ccccc1C1=CCC(=S)Nc2ccc(Cl)cc21 | 95% | 317 nM | –
CSC1=Nc2ccc(Cl)cc2C(c2ccccc2)=N[C@H]1C(C)C | – | – | Activity [1]: inactive
Fc1ccccc1C1=N[C@H](c2ccccc2)C(=S)Nc2ccc(Cl)cc21 | – | > 10000 nM | –
S=C1COC(c2ccccc2)c2cc(Cl)ccc2N1 (stereo not given) | – | > 10000 nM | –
CC(=O)OC1C=C(c2ccccc2F)c2cc(Cl)ccc2NC1=S (stereo not given) | 92% | 649 nM | –
CC1N=C(c2ccccc2)c2cc(C#N)ccc2NC1=S (stereo not given) | 47% | > 10000 nM | –
CC[C@@H]1N=C(c2ccccc2)c2cc(Cl)ccc2NC1=S | 66% | 187 nM | –
CC(C)[C@@H]1N=C(c2ccccc2)c2cc(Cl)ccc2N=C1N | – | – | Activity [1]: inactive
Fc1ccccc1C1=NCc2cnnn2-c2ccc(Cl)cc21 | – | – | Activity [1]: inactive
CC(C)C1C(=S)Nc2ccc(Cl)cc2C(c2ccccc2)=[N+]1[O-] (stereo not given) | 112% | 349 nM | –
CCOC(=O)C1N=C(c2ccccc2)c2cc(Cl)ccc2NC1=S (racemic) | – | > 10000 nM | –
CC(C)[C@@H]1N=C(c2ccccc2)c2ccc(Cl)cc2NC1=S | 117% | 399 nM | –
SC1=Nc2ccc(Cl)cc2C(c2ccccc2)=NC1 | 82 to 92% | 180 to 857 nM | –
CSc1ccc2c(c1)C(c1ccccc1)=NCC(=S)N2 | 71% | 870 nM | –
CC(C)=C1N=C(c2ccccc2)c2cc(Cl)ccc2NC1=S | – | > 10000 nM | –
CC(C)C1C(=O)N(c2ccccc2)c2cc(Cl)ccc2NC1=S (stereo not given) | 93% | 267 nM | –
S=C1CN=C(c2ccccc2)c2cc(Br)ccc2N1 | 92% | 962 nM | –
CCC[C@@]1(C)N=C(c2ccccc2)c2cc(Cl)ccc2NC1=S | – | > 10000 nM | –
